We go through 2 substances from patent US11548919B1, “SARS-CoV-2 polypeptide inhibitors directed against the Env TM domain and methods of treatment using said inhibitors” (priority 2022, dated 2023).

“Also recorded” adds a separate entry of the source. Square brackets hold non-standard residues; d marks the D form. Ends that are not written are not given here. Nap = naphthyl group, N-terminal cap; Aib = CC(C)(N)C(=O)O

The experiment deals with SARS-CoV-2 Omicron variant pseudovirus. Format: cell-based. Particulars: for fluorescence of peptide groups versus no-peptide control: N=3.

In the case of “NapFFMLUFLMUMEKKKK (Nap-FFML[Aib]FLM[Aib]MEKKKK)”, the “inhibition of SARS-CoV-2 Omicron pseudovirus infection / replication in mammalian cells” value is “effectively inhibited viral replication; also recorded: significantly inhibited” and the “fluorescence of peptide groups versus no-peptide control” value is listed as “statistically (p<0.01) less than”.
Turning to “NapFFTLUFLTUTEKKKK (Nap-FFTL[Aib]FLT[Aib]TEKKKK)”, the “inhibition of SARS-CoV-2 Omicron pseudovirus infection / replication in mammalian cells” value is “effectively inhibited viral replication; also recorded: significantly inhibited” and the “fluorescence of peptide groups versus no-peptide control” value is on record as “statistically (p<0.01) less than”.
